Data: US10456407B2, “Combination therapy for treating cancer” (Epizyme, Inc., priority 2015, dated 2019)

How the values were obtained:
Type in all cases: cell-based
RL cells [1] = assay: RT2 Glucocorticoid signaling PCR array, RL (Table 4e, printed RI) cell line; conditions: 4 days, Cpd44 1 uM, Pred 10-fold below 4-day IC50, vs DMSO, B2M-normalized
RL cells [2] = assay: as above; conditions: 4 days, Cpd44 1 uM, Pred 10-fold below 4-day IC50, vs DMSO, B2M-normalized; remark: listed apart in the source
Description: (§1) Expression levels of (A). Sestrin; (B). TNF and (C) GILZ normalized to DMSO controls for each cell line with the indicated single agent or combination.

SU-DHL4 cells [3] = assay: RT2 Glucocorticoid signaling PCR array, SU-DHL4 (SUDHL4) cell line (Table 4f); conditions: SUDHL4, 4 days, vs DMSO
Description: as §1

SU-DHL4 cells [4] = assay: as above; conditions: SUDHL4, 4 days, vs DMSO; remark: listed apart in the source

`CCN(c1cc(-c2ccc(CN3CCOCC3)cc2)cc(C(=O)NCc2c(C)cc(C)[nH]c2=O)c1C)C1CCOCC1` [Compound 44] showed a ΔΔCT (RL cells [1]; ADARB1 mRNA) of −1.672, a ΔΔCT (RL cells [1]; AFF1 mRNA) of −2.005 and a ΔΔCT (RL cells [1]; AK2 mRNA) of 0.268. It also gave a ΔΔCT (RL cells [1]; ANGPTL4 mRNA) of −0.935, a ΔΔCT (RL cells [1]; ANXA4 mRNA) of −0.562 and a ΔΔCT (RL cells [1]; ARID68 mRNA) of −1.220. For the same molecule, the ΔΔCT (RL cells [1]; ATF4 mRNA) was 0.003, the ΔΔCT (RL cells [1]; CEBPB mRNA) was −0.004 and the ΔΔCT (RL cells [1]; COL4A2 mRNA) was −0.773. For the same molecule, the ΔΔCT (RL cells [1]; CREB1 mRNA) was 0.205, the ΔΔCT (RL cells [1]; CREB3L4 mRNA) was −0.760 and the ΔΔCT (RL cells [1]; CREB3 mRNA) was −0.189. It also gave a ΔΔCT (RL cells [1]; CYB561 mRNA) of −1.477, a ΔΔCT (RL cells [1]; DDIT4 mRNA) of 0.461 and a ΔΔCT (RL cells [1]; DUSP1 mRNA) of −0.321. It also gave a ΔΔCT (RL cells [1]; EDN1 mRNA) of −1.208, a ΔΔCT (RL cells [1]; EHD3 mRNA) of −0.962 and a ΔΔCT (RL cells [1]; FK8PS mRNA) of 0.388. The ΔΔCT (RL cells [1]; GDPD1 mRNA) was −0.772, the ΔΔCT (RL cells [1]; GLUL mRNA) was −2.614 and the ΔΔCT (RL cells [1]; GOT1 mRNA) was 0.518. It also gave a ΔΔCT (RL cells [1]; H6PD mRNA) of −0.673, a ΔΔCT (RL cells [1]; HNRPLL mRNA) of 0.309 and a ΔΔCT (RL cells [1]; IL1RN mRNA) of −1.881. It also gave a ΔΔCT (RL cells [1]; IL6R mRNA) of −0.515, a ΔΔCT (RL cells [1]; IL10 mRNA) of −1.432 and a ΔΔCT (RL cells [1]; KLF13 mRNA) of −0.566. The ΔΔCT (RL cells [1]; LOX mRNA) was −0.580, the ΔΔCT (RL cells [1]; MERTK mRNA) was −4.419 and the ΔΔCT (RL cells [1]; MT2A mRNA) was 0.577. For the same molecule, the ΔΔCT (RL cells [1]; NFKBIA mRNA) was 0.854, the ΔΔCT (RL cells [1]; NR3C1 mRNA) was 0.067 and the ΔΔCT (RL cells [1]; PDCD7 mRNA) was 0.006. For the same molecule, the ΔΔCT (RL cells [1]; PDP1 mRNA) was −0.989, the ΔΔCT (RL cells [1]; PER1 mRNA) was 0.384 and the ΔΔCT (RL cells [1]; PER2 mRNA) was −0.361. It also gave a ΔΔCT (RL cells [1]; PIK3R1 mRNA) of 0.373, a ΔΔCT (RL cells [1]; PLEKHF1 mRNA) of 0.050 and a ΔΔCT (RL cells [1]; POU2F1 mRNA) of −0.027. For the same molecule, the ΔΔCT (RL cells [1]; POU2F2 mRNA) was −0.584, the ΔΔCT (RL cells [1]; RA5A3 mRNA) was −0.009 and the ΔΔCT (RL cells [1]; RGS2 mRNA) was −0.162. For the same molecule, the ΔΔCT (RL cells [1]; SESN1 mRNA) was −1.697, the ΔΔCT (RL cells [1]; SGK1 mRNA) was 0.801 and the ΔΔCT (RL cells [1]; SLC19A2 mRNA) was −0.797. It also gave a ΔΔCT (RL cells [1]; SNTA1 mRNA) of 0.040, a ΔΔCT (RL cells [1]; SPHK1 mRNA) of −0.781 and a ΔΔCT (RL cells [1]; SPSB1 mRNA) of −0.865. It also gave a ΔΔCT (RL cells [1]; STAT5A mRNA) of 0.001, a ΔΔCT (RL cells [1]; STAT5B mRNA) of −0.094 and a ΔΔCT (RL cells [1]; TNF mRNA) of −0.837. For the same molecule, the ΔΔCT (RL cells [1]; TNFAIP3 mRNA) was 0.886, the ΔΔCT (RL cells [1]; USP2 mRNA) was −0.139 and the ΔΔCT (RL cells [1]; USPS4 mRNA) was −0.961. For the same molecule, the ΔΔCT (RL cells [1]; VDR mRNA) was −2.658, the ΔΔCT (RL cells [1]; ZHX3 mRNA) was 4.661 and the ΔΔCT (RL cells [1]; ZNF281 mRNA) was 0.046. The ΔΔCT (RL cells [2]; AMPD3 mRNA) was −0.885, the ΔΔCT (RL cells [2]; ASPH mRNA) was 0.476 and the ΔΔCT (RL cells [2]; BCL6 mRNA) was 0.263. For the same molecule, the ΔΔCT (RL cells [2]; FOSL2 mRNA) was −1.274, the ΔΔCT (RL cells [2]; TSC22D3 mRNA) was 0.189 and the ΔΔCT (RL cells [2]; ZFP36 mRNA) was −0.036. The “ΔΔCT, BCL6” value (SU-DHL4 cells [3]) was −1.019, the “ΔΔCT, CEBPB” value (SU-DHL4 cells [3]) was 0.776 and the “ΔΔCT, DDIT4” value (SU-DHL4 cells [3]) was −1.317. The “ΔΔCT, DUSP1” value (SU-DHL4 cells [3]) was −0.449, the “ΔΔCT, NFKBIA” value (SU-DHL4 cells [3]) was −0.388 and the “ΔΔCT, PDP1” value (SU-DHL4 cells [3]) was −0.911. The “ΔΔCT, POU2F2” value (SU-DHL4 cells [3]) was −0.539, the “ΔΔCT, RASA3” value (SU-DHL4 cells [3]) was −0.731 and the “ΔΔCT, SPHK1” value (SU-DHL4 cells [3]) was −1.066. For the same molecule, the “ΔΔCT, STAT5A” value (SU-DHL4 cells [3]) was −0.587, the “ΔΔCT, TNF” value (SU-DHL4 cells [3]) was −2.458 and the “ΔΔCT, VDR” value (SU-DHL4 cells [3]) was −2.155. For the same molecule, the “ΔΔCT, VLDLR” value (SU-DHL4 cells [3]) was 0.438, the “ΔΔCT, ZNF281” value (SU-DHL4 cells [3]) was −0.612 and the “ΔΔCT MERTK” value (SU-DHL4 cells [4]) was 1.977. For the same molecule, the “ΔΔCT, ADARB1” value (SU-DHL4 cells [4]) was −1.229, the “ΔΔCT, AFF1” value (SU-DHL4 cells [4]) was −0.276 and the “ΔΔCT, AMPD3” value (SU-DHL4 cells [4]) was −1.449. The “ΔΔCT, ANGPTL4” value (SU-DHL4 cells [4]) was −1.331, the “ΔΔCT, ANXA4” value (SU-DHL4 cells [4]) was −2.419 and the “ΔΔCT, AQP1” value (SU-DHL4 cells [4]) was 0.331. For the same molecule, the “ΔΔCT, ARID68” value (SU-DHL4 cells [4]) was −0.541, the “ΔΔCT, ASPH” value (SU-DHL4 cells [4]) was −0.843 and the “ΔΔCT, ATF4” value (SU-DHL4 cells [4]) was 0.146. The “ΔΔCT, CEBPA” value (SU-DHL4 cells [4]) was −2.510, the “ΔΔCT, CREB1” value (SU-DHL4 cells [4]) was −0.313 and the “ΔΔCT, CREB3” value (SU-DHL4 cells [4]) was −0.490. The “ΔΔCT, CREB3L4” value (SU-DHL4 cells [4]) was −0.655, the “ΔΔCT, CYB561” value (SU-DHL4 cells [4]) was −4.236 and the “ΔΔCT, EHD3” value (SU-DHL4 cells [4]) was −1.998. For the same molecule, the “ΔΔCT, FK8PS” value (SU-DHL4 cells [4]) was 0.008, the “ΔΔCT, GDPD1” value (SU-DHL4 cells [4]) was −1.356 and the “ΔΔCT, GOT1” value (SU-DHL4 cells [4]) was 0.065. The “ΔΔCT, H6PD” value (SU-DHL4 cells [4]) was −0.549, the “ΔΔCT, HNRPLL” value (SU-DHL4 cells [4]) was −0.471 and the “ΔΔCT, IL6R” value (SU-DHL4 cells [4]) was −1.903. For the same molecule, the “ΔΔCT, IL10” value (SU-DHL4 cells [4]) was −1.895, the “ΔΔCT, KLF9” value (SU-DHL4 cells [4]) was −1.293 and the “ΔΔCT, KLF13” value (SU-DHL4 cells [4]) was −0.534. The “ΔΔCT, MT2A” value (SU-DHL4 cells [4]) was −0.309, the “ΔΔCT, NR3C1” value (SU-DHL4 cells [4]) was −0.234 and the “ΔΔCT, PDCD7” value (SU-DHL4 cells [4]) was −0.127. The “ΔΔCT, PER1” value (SU-DHL4 cells [4]) was −0.524, the “ΔΔCT, PER2” value (SU-DHL4 cells [4]) was −0.854 and the “ΔΔCT, PIK3R1” value (SU-DHL4 cells [4]) was −0.502. For the same molecule, the “ΔΔCT, PLEKHF1” value (SU-DHL4 cells [4]) was −1.254, the “ΔΔCT, POU2F1” value (SU-DHL4 cells [4]) was −0.575 and the “ΔΔCT, RGS2” value (SU-DHL4 cells [4]) was −0.632. The “ΔΔCT, RHOB” value (SU-DHL4 cells [4]) was −1.561, the “ΔΔCT, SESN1” value (SU-DHL4 cells [4]) was −2.258 and the “ΔΔCT, SLC10A6” value (SU-DHL4 cells [4]) was −4.180. The “ΔΔCT, SLC19A2” value (SU-DHL4 cells [4]) was −1.612, the “ΔΔCT, SLC22A5” value (SU-DHL4 cells [4]) was −0.775 and the “ΔΔCT, SNTA1” value (SU-DHL4 cells [4]) was −0.847. For the same molecule, the “ΔΔCT, SPSB1” value (SU-DHL4 cells [4]) was −0.624, the “ΔΔCT, STAT5B” value (SU-DHL4 cells [4]) was −0.298 and the “ΔΔCT, TBL1XR1” value (SU-DHL4 cells [4]) was −0.456. The “ΔΔCT, TNFAIP3” value (SU-DHL4 cells [4]) was 0.339, the “ΔΔCT, TSC22D3” value (SU-DHL4 cells [4]) was −0.002 and the “ΔΔCT, USP2” value (SU-DHL4 cells [4]) was −0.688. The “ΔΔCT, USPS4” value (SU-DHL4 cells [4]) was 6.193, the “ΔΔCT, ZFP36” value (SU-DHL4 cells [4]) was −0.262 and the “ΔΔCT, ZHX3” value (SU-DHL4 cells [4]) was −1.047.
